Converted amounts (≈) assume the structure as drawn.

Broadly, the MIC is the lowest concentration that inhibits growth of the organism. High values mean a less susceptible organism, low ones a more susceptible organism.

Some test systems named below: Saccharomyces cerevisiae; Micrococcus luteus; Pseudomonas aeruginosa; Escherichia coli B; Bacillus subtilis 168; Staphylococcus aureus.
Holding throughout (test): ≥ marks a high value that may be exact or a test limit, other limits are often not marked, values filed in µg/mL are converted to µM
Experiment [1] concerns Staphylococcus aureus NCTC 10788.
In experiment [2] the test system is Candida albicans NCPF 1467.
Experiment [3] deals with Escherichia coli NCTC 10418.
In experiment [4] the test system is Staphylococcus aureus ATCC 25923.
In experiment [5] the test system is Escherichia coli ATCC 25922.
Experiment [6] relates to Pseudomonas aeruginosa ATCC 15692.
Experiment [7] concerns Candida albicans F7-39/IDE99.
For experiment [8], the system named is Micrococcus luteus CCM 144.

Take `CC[C@H](C)[C@H](NC(=O)CNC(=O)[C@H](CO)NC(=O)[C@H](C)NC(=O)[C@@H](NC(=O)[C@H](Cc1cnc[nH]1)NC(=O)[C@@H]1CCCN1C(=O)[C@@H](NC(=O)[C@H](CC(C)C)NC(=O)[C@H](CO)NC(=O)[C@H](CC(C)C)NC(=O)[C@@H](N)Cc1ccccc1)[C@@H](C)CC)[C@@H](C)CC)C(=O)N[C@@H](C)C(=O)N[C@@H](CO)C(=O)N[C@@H](CC(C)C)C(=O)N[C@H](C(=O)N[C@@H](CCCCN)C(=O)N[C@@H](CC(N)=O)C(=O)N[C@@H](Cc1ccccc1)C(N)=O)C(C)C` [FLSLIPHIASGIASLVKNF]: the MIC in experiment [1] was 5 µM (≈ 10.1 µg/mL); in [2] it was 20 µM (≈ 40.5 µg/mL); in experiment [3], at least 200 µM.
For `CC[C@H](C)[C@H](NC(=O)[C@H](CO)NC(=O)[C@H](CC(N)=O)NC(=O)[C@@H](NC(=O)[C@H](Cc1ccccc1)NC(=O)[C@H](C)NC(=O)[C@H](CO)NC(=O)[C@H](C)NC(=O)[C@H](Cc1ccccc1)NC(=O)[C@H](CC(=O)O)NC(=O)[C@H](CCCCN)NC(=O)[C@H](C)NC(=O)CNC(=O)[C@@H](NC(=O)[C@H](CCCCN)NC(=O)[C@H](CC(C)C)NC(=O)[C@H](CCCCN)NC(=O)[C@H](CCC(=O)O)NC(=O)[C@H](CC(C)C)NC(=O)[C@H](Cc1ccccc1)NC(=O)CN)[C@@H](C)O)C(C)C)C(=O)N[C@@H](CCCCN)C(N)=O` [GFLEKLKTGAKDFASAFVNSIK] the same measures were at least 216 µM, at least 108 µM and at least 54 µM.
Regarding `CC[C@H](C)[C@H](NC(=O)[C@@H]1CCCN1C(=O)[C@H](CCC(N)=O)NC(=O)[C@@H](NC(=O)[C@H](CC(C)C)NC(=O)[C@H](CCCCN)NC(=O)[C@@H]1CCCN1C(=O)CNC(=O)[C@H](CC(C)C)NC(=O)[C@H](CCC(N)=O)NC(=O)[C@H](CCSC)NC(=O)[C@H](C)NC(=O)[C@H](CCCCN)NC(=O)[C@H](CCCN=C(N)N)NC(=O)[C@H](CC(C)C)NC(=O)[C@@H](NC(=O)[C@H](CCCCN)NC(=O)CNC(=O)[C@H](Cc1ccccc1)NC(=O)[C@@H](NC(=O)[C@@H]1CCCN1C(=O)[C@H](CC(C)C)NC(=O)[C@H](Cc1c[nH]c2ccccc12)NC(=O)CN)[C@@H](C)O)[C@@H](C)CC)[C@@H](C)CC)C(=O)O` [GWLPTFGKILRKAMQLGPKLIQPI], the minimal inhibitory concentration (MIC) is at least 32 µM in the experiment on Saccharomyces cerevisiae; 16 µM (≈ 43.3 µg/mL) in experiment [4]; 1 µM (≈ 2.71 µg/mL) in the experiment on Micrococcus luteus; 1.41 µM (≈ 3.83 µg/mL) in experiment [5]; 11.3 µM (≈ 30.6 µg/mL) in [6].
With `CC[C@H](C)[C@H](NC(=O)[C@H](C)NC(=O)[C@H](CCCCN)NC(=O)[C@H](Cc1c[nH]c2ccccc12)NC(=O)[C@H](CC(N)=O)NC(=O)[C@@H](N)CCCCN)C(=O)N[C@@H](CC(C)C)C(=O)N[C@@H](CCCCN)C(=O)N[C@@H](Cc1cnc[nH]1)C(=O)N[C@H](C(=O)N[C@H](C(=O)N[C@@H](CCCCN)C(N)=O)[C@@H](C)CC)[C@@H](C)CC` [KNWKAILKHIIK], the MIC against Pseudomonas aeruginosa was determined as 65 µM (≈ 96.9 µg/mL); against Escherichia coli B, 7.8 µM (≈ 11.6 µg/mL); with Bacillus subtilis 168, 2.5 µM (≈ 3.73 µg/mL); in experiment [7], 8 µM (≈ 11.9 µg/mL); in experiment [8], 5 µM (≈ 7.45 µg/mL); against Staphylococcus aureus, 65 µM (≈ 96.9 µg/mL).
As to `CC[C@H](C)[C@H](NC(=O)[C@H](C)NC(=O)CNC(=O)[C@H](Cc1c[nH]c2ccccc12)NC(=O)[C@H](CC(N)=O)NC(=O)[C@@H](N)CC(C)C)C(=O)N[C@@H](CC(C)C)C(=O)N[C@@H](CCCCN)C(=O)N[C@@H](Cc1cnc[nH]1)C(=O)N[C@H](C(=O)N[C@H](C(=O)N[C@@H](CCCCN)C(N)=O)[C@@H](C)CC)[C@@H](C)CC` [LNWGAILKHIIK], the MIC was found to be 51.7 µM (≈ 72.6 µg/mL) in the experiment with Pseudomonas aeruginosa; 3.7 µM (≈ 5.2 µg/mL) against Escherichia coli B; 1.3 µM (≈ 1.83 µg/mL) against Bacillus subtilis 168; 7.3 µM (≈ 10.3 µg/mL) in experiment [7]; 1.5 µM (≈ 2.11 µg/mL) in experiment [8]; 10.6 µM (≈ 14.9 µg/mL) against Staphylococcus aureus.

The values above are taken from DBAASP.
